Test [1] relates to Cricetinae gen. sp. Description: In vivo inhibition in HLE-induced hamster lung hemorrhage when given orally at 10 mg/kg, 2 hr before challenge by HLE. The settings on record: route oral. Format: functional.
Test [2] concerns the target T1, Neutrophil elastase (Homo sapiens) (UniProt P08246).
T1 sequence (whole entry): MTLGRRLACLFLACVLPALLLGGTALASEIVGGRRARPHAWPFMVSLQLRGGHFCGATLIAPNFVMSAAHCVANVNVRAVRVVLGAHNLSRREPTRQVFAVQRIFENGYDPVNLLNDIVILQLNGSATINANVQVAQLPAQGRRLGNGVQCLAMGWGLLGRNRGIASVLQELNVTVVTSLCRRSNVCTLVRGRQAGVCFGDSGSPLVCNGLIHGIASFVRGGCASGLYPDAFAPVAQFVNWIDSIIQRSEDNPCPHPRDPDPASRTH
Description: Compound was tested for inhibition of Human Leukocyte Elastase enzyme, expressed in term of bimolecular rate constant (Kinact/Ki).

For test [3], the target named is T1, Neutrophil elastase (Homo sapiens). Kind of test: (§1) In vitro inhibition of Human Leukocyte Elastase enzyme in whole blood stimulated with A-23187 (at dose 3 uM). Format: functional, tissue-based.
Test [4] deals with Cricetinae gen. sp. Kind of test: Effective dose required to in vivo inhibition in HLE-induced hamster lung hemorrhage when given orally 5 hr before the enzyme. Format: functional. Particulars: po.
Another test deals with T2, Neutrophil elastase (Homo sapiens, UniProt P08246).
T2 sequence (P08246 whole entry): T1 sequence (whole entry)
The description is as §1. The test is classed as functional, tissue-based.

Structures are written as SMILES.

The term inhibition in vivo denotes the relative decrease from the control value, in per cent. What is called inhibition is the relative decrease from the control value, in per cent. Low values mean a response near the control, high ones a response far below the control. A word on the ED50: it is the dose that gives a 50% effect, or the effect in half of the subjects. Lower therefore signals greater potency. What is called IC50 is the concentration that inhibits the measured activity by half. Low values mean greater potency, high ones weaker potency.

Consider `CCC[C@@H](NC(=O)N1C(=O)C(CC)(CC)[C@@H]1Oc1ccc(CP(=O)(O)c2ccccc2)cc1)c1ccc(C)cc1`, for which, in the test with Cricetinae gen. sp. [1], the inhibition in vivo at 10 mg/kg came out at 27%. Besides, in test [2], the Ratio stood at 1.17e+06 M⁻¹ s⁻¹. In addition, the inhibition in test [3] amounted to 34%.

Consider `CCC[C@@H](NC(=O)N1C(=O)C(CC)(CC)[C@@H]1Oc1ccc(CP(C)(=O)O)cc1)c1ccc(C)cc1`, for which, in the test with Cricetinae gen. sp. [1], the inhibition in vivo at 10 mg/kg was -59%. Also, in test [2], the Ratio worked out at 417000 M⁻¹ s⁻¹. Besides, in test [3], the inhibition was 55%.

`CCC[C@@H](NC(=O)N1C(=O)C(CC)(CC)[C@@H]1Oc1ccc(CP(=O)(CCC)OC(OC(=O)CC)C(C)C)cc1)c1ccc(C)cc1` (stereo not given in full): the Ratio in test [2] worked out at 1.05e+06 M⁻¹ s⁻¹.

With `CCC[C@@H](NC(=O)N1C(=O)C(CC)(CC)[C@@H]1Oc1ccc(CC(=O)O)cc1)c1ccc(C)cc1`, the 50% effect level in the test with Cricetinae gen. sp. [4] (ED50) was put at a dose of 1.5 mg/kg. In addition, the IC50 on Neutrophil elastase was 9 µM. For the same compound, in test [2], the Ratio was 622000 M⁻¹ s⁻¹.

`C=CCP(=O)(Cc1ccc(O[C@@H]2N(C(=O)N[C@H](CCC)c3ccc(C)cc3)C(=O)C2(CC)CC)cc1)OCC` (stereo not given in full): in the test on Cricetinae gen. sp. [1], the inhibition in vivo at 10 mg/kg was found to be 64%. Besides, in test [2], the Ratio was determined as 1.33e+06 M⁻¹ s⁻¹. The inhibition in test [3] was 51%.

Regarding `CCC[C@@H](NC(=O)N1C(=O)C(CC)(CC)[C@@H]1Oc1ccc(CP(=O)(O)CCC)cc1)c1ccc(C)cc1`, the inhibition in vivo at 10 mg/kg in the test with Cricetinae gen. sp. [1] came out at 15%. The Ratio in test [2] amounted to 906000 M⁻¹ s⁻¹. The compound also showed an inhibition in test [3] of 50%.

Regarding `CCC[C@@H](NC(=O)N1C(=O)C(CC)(CC)[C@@H]1Oc1ccc(CP(=O)(OCC)OCC)cc1)c1ccc(C)cc1`, the inhibition in vivo at 10 mg/kg with Cricetinae gen. sp. [1] is 15%. In addition, the Ratio in test [2] was 1.16e+06 M⁻¹ s⁻¹. This compound came in with an inhibition in test [3] of 63%.

As to `CCC[C@@H](NC(=O)N1C(=O)C(CC)(CC)[C@@H]1Oc1ccc(CP(=O)(O)O)cc1)c1ccc(C)cc1`, the inhibition in vivo at 10 mg/kg in the test with Cricetinae gen. sp. [1] was found to be 17%. Moreover, the Ratio in test [2] stood at 217000 M⁻¹ s⁻¹. The compound also gave an inhibition in test [3] of 61%.

Take `C=CCP(=O)(O)Cc1ccc(O[C@@H]2N(C(=O)N[C@H](CCC)c3ccc(C)cc3)C(=O)C2(CC)CC)cc1`: the inhibition in vivo at 10 mg/kg in the test on Cricetinae gen. sp. [1] was 19%. The Ratio in test [2] worked out at 740000 M⁻¹ s⁻¹. In test [3], this compound displayed an inhibition of 48%.

Source of the values: ChEMBL document CHEMBL1128120, “Phosphorous acid analogs of L-680,833, a potent monocyclic -lactam inhibitor of human leukocyte elastase” (Bioorg Med Chem Lett, 1995).
